According to article PMC8788354 (Journal of Enzyme Inhibition and Medicinal Chemistry, 2022):

System: SKOV-3 (ovarian cancer cell line)
Experiment: cells
Format: cell-based, human
Conditions: Homo sapiens, SK-OV-3; SRB assay, 72 h exposure; read-out: Anticancer activity IC50 (nM) ± SD, SKOV-3

Compound	IC50 [nM]
C=Cc1ccc(COc2cc3c(ccc2=O)-c2c(cc(OC)c(OC)c2OC)CC[C@@H]3NC(C)=O)cc1 [Compound 3j]	4.55 ± 0.07
COc1cc2c(c(OC)c1OC)-c1ccc(=O)c(OCc3cn(C4CC(n5cc(C)c(=O)[nH]c5=O)OC4CO)nn3)cc1C(NC(C)=O)CC2 (stereo not drawn) [Compound 5e]	3.74 ± 0.03
C=CCCOc1ccc2c(cc1=O)[C@@H](NC(C)=O)CCc1cc(OC)c(OC)c(OC)c1-2 [Compound 4h]	1.27 ± 0.16
C#CCOc1ccc2c(cc1=O)[C@@H](NC(C)=O)CCc1cc(OC)c(OC)c(OC)c1-2 [Compound 4f]	1.52 ± 0.02
C#CCOc1cc2c(ccc1=O)-c1c(cc(OC)c(OC)c1OC)CC[C@@H]2NC(C)=O [Compound 3f]	1.05 ± 0.07
COc1cc2c(c(OC)c1OC)-c1ccc(=O)c(OCc3ccc(I)cc3)cc1[C@@H](NC(C)=O)CC2 [Compound 3b]	2.13 ± 0.4
COc1cc2c(c(OC)c1OC)-c1ccc(OCc3ccccc3)c(=O)cc1[C@@H](NC(C)=O)CC2 [Compound 4a]	1.63 ± 0.03

Same assay, conditions: SI = IC50 HDF/IC50 SKOV-3

Compound	Selectivity index (SI), SKOV-3
C#CCOc1cc2c(ccc1=O)-c1c(cc(OC)c(OC)c1OC)CC[C@@H]2NC(C)=O [Compound 3f]	~2.7

System: SKBR-3 (human breast cancer cell line)
Experiment: cells
Format: cell-based
Conditions: Homo sapiens, SK-BR-3, 72 h, SRB assay, 72 h exposure; read-out: Anticancer activity IC50 (nM) ± SD, SKBR-3

Compound	IC50 [nM]
C=Cc1ccc(COc2cc3c(ccc2=O)-c2c(cc(OC)c(OC)c2OC)CC[C@@H]3NC(C)=O)cc1 [Compound 3j]	4.19 ± 0.62
COc1cc2c(c(OC)c1OC)-c1ccc(=O)c(OCc3cn(C4CC(n5cc(C)c(=O)[nH]c5=O)OC4CO)nn3)cc1C(NC(C)=O)CC2 (stereo not drawn) [Compound 5e]	3.71 ± 0.05
C=CCCOc1ccc2c(cc1=O)[C@@H](NC(C)=O)CCc1cc(OC)c(OC)c(OC)c1-2 [Compound 4h]	1.69 ± 0.05
C#CCOc1ccc2c(cc1=O)[C@@H](NC(C)=O)CCc1cc(OC)c(OC)c(OC)c1-2 [Compound 4f]	1.48 ± 0.09
C#CCOc1cc2c(ccc1=O)-c1c(cc(OC)c(OC)c1OC)CC[C@@H]2NC(C)=O [Compound 3f]	1.37 ± 0.02
COc1cc2c(c(OC)c1OC)-c1ccc(=O)c(OCc3ccc(I)cc3)cc1[C@@H](NC(C)=O)CC2 [Compound 3b]	2.55 ± 0.12
COc1cc2c(c(OC)c1OC)-c1ccc(OCc3ccccc3)c(=O)cc1[C@@H](NC(C)=O)CC2 [Compound 4a]	2.01 ± 0.02

System: U-87MG cells (glioblastoma cell line)
Experiment: cells
Format: cell-based, human
Conditions: Homo sapiens, U-87 MG; SRB assay, 72 h exposure; read-out: Anticancer activity IC50 (nM) ± SD, U-87

Compound	IC50 [nM]
C=Cc1ccc(COc2cc3c(ccc2=O)-c2c(cc(OC)c(OC)c2OC)CC[C@@H]3NC(C)=O)cc1 [Compound 3j]	4.55 ± 0.06
COc1cc2c(c(OC)c1OC)-c1ccc(=O)c(OCc3cn(C4CC(n5cc(C)c(=O)[nH]c5=O)OC4CO)nn3)cc1C(NC(C)=O)CC2 (stereo not drawn) [Compound 5e]	3.05 ± 0.01
C=CCCOc1ccc2c(cc1=O)[C@@H](NC(C)=O)CCc1cc(OC)c(OC)c(OC)c1-2 [Compound 4h]	1.07 ± 0.12
C#CCOc1ccc2c(cc1=O)[C@@H](NC(C)=O)CCc1cc(OC)c(OC)c(OC)c1-2 [Compound 4f]	1.06 ± 0.04
C#CCOc1cc2c(ccc1=O)-c1c(cc(OC)c(OC)c1OC)CC[C@@H]2NC(C)=O [Compound 3f]	1.14 ± 0.01
COc1cc2c(c(OC)c1OC)-c1ccc(=O)c(OCc3ccc(I)cc3)cc1[C@@H](NC(C)=O)CC2 [Compound 3b]	2.47 ± 0.91
COc1cc2c(c(OC)c1OC)-c1ccc(OCc3ccccc3)c(=O)cc1[C@@H](NC(C)=O)CC2 [Compound 4a]	2.08 ± 0.01

Same assay, conditions: SI = IC50 HDF/IC50 U-87

Compound	Selectivity index (SI), U-87
C=CCCOc1ccc2c(cc1=O)[C@@H](NC(C)=O)CCc1cc(OC)c(OC)c(OC)c1-2 [Compound 4h]	~2.5

System: SKBR-3, SKOV-3, PC-3, U-87 cells
Experiment: SRB cytotoxicity assay, values summarised over cancer cell lines
Format: cell-based, human
Conditions: Homo sapiens, average over cancer cell lines; read-out: Average anticancer IC50

Compound	IC50 [nM]
C=CCCOc1ccc2c(cc1=O)[C@@H](NC(C)=O)CCc1cc(OC)c(OC)c(OC)c1-2 [Compound 4h]	~1.5

System: not listed separately
Experiment: in vitro
Conditions: human, Toxicity IC50 (nM) ± SD, HDF, healthy cell line HDF, SRB assay, 72 h exposure

Compound	IC50 [nM]
C=Cc1ccc(COc2cc3c(ccc2=O)-c2c(cc(OC)c(OC)c2OC)CC[C@@H]3NC(C)=O)cc1 [Compound 3j]	5.38 ± 0.42
COc1cc2c(c(OC)c1OC)-c1ccc(=O)c(OCc3cn(C4CC(n5cc(C)c(=O)[nH]c5=O)OC4CO)nn3)cc1C(NC(C)=O)CC2 (stereo not drawn) [Compound 5e]	6.22 ± 0.32
C=CCCOc1ccc2c(cc1=O)[C@@H](NC(C)=O)CCc1cc(OC)c(OC)c(OC)c1-2 [Compound 4h]	2.71 ± 0.08
C#CCOc1ccc2c(cc1=O)[C@@H](NC(C)=O)CCc1cc(OC)c(OC)c(OC)c1-2 [Compound 4f]	1.85 ± 0.03
C#CCOc1cc2c(ccc1=O)-c1c(cc(OC)c(OC)c1OC)CC[C@@H]2NC(C)=O [Compound 3f]	2.83 ± 0.44
COc1cc2c(c(OC)c1OC)-c1ccc(=O)c(OCc3ccc(I)cc3)cc1[C@@H](NC(C)=O)CC2 [Compound 3b]	3.94 ± 0.27
COc1cc2c(c(OC)c1OC)-c1ccc(OCc3ccccc3)c(=O)cc1[C@@H](NC(C)=O)CC2 [Compound 4a]	4.12 ± 0.06

System: PC-3 (human prostate cancer cell line)
Experiment: cells
Format: cell-based
Conditions: Homo sapiens; SRB assay, 72 h exposure; read-out: Anticancer activity IC50 (nM) ± SD, PC-3

Compound	IC50 [nM]
C=Cc1ccc(COc2cc3c(ccc2=O)-c2c(cc(OC)c(OC)c2OC)CC[C@@H]3NC(C)=O)cc1 [Compound 3j]	4.59 ± 0.03
COc1cc2c(c(OC)c1OC)-c1ccc(=O)c(OCc3cn(C4CC(n5cc(C)c(=O)[nH]c5=O)OC4CO)nn3)cc1C(NC(C)=O)CC2 (stereo not drawn) [Compound 5e]	3.51 ± 0.09
C=CCCOc1ccc2c(cc1=O)[C@@H](NC(C)=O)CCc1cc(OC)c(OC)c(OC)c1-2 [Compound 4h]	1.22 ± 0.03
C#CCOc1ccc2c(cc1=O)[C@@H](NC(C)=O)CCc1cc(OC)c(OC)c(OC)c1-2 [Compound 4f]	1.46 ± 0.13
C#CCOc1cc2c(ccc1=O)-c1c(cc(OC)c(OC)c1OC)CC[C@@H]2NC(C)=O [Compound 3f]	1.05 ± 0.03
COc1cc2c(c(OC)c1OC)-c1ccc(=O)c(OCc3ccc(I)cc3)cc1[C@@H](NC(C)=O)CC2 [Compound 3b]	2.94 ± 0.08
COc1cc2c(c(OC)c1OC)-c1ccc(OCc3ccccc3)c(=O)cc1[C@@H](NC(C)=O)CC2 [Compound 4a]	2.26 ± 0.01

Same assay, conditions: SI = IC50 HDF/IC50 PC-3

Compound	Selectivity index (SI), PC-3
C#CCOc1cc2c(ccc1=O)-c1c(cc(OC)c(OC)c1OC)CC[C@@H]2NC(C)=O [Compound 3f]	~2.7
